Assay results from patent EP3650046A1, “MESENCHYMAL STEM CELL BASED TARGETED ACTIVE INGREDIENT DELIVERY SYSTEM” (Cellis AG, priority 2018, dated 2020).

Key:
[1] = test system: human cancer cell lines HeLa, SCOV3 or MDA-MB-231; assay: Delivery of the complex from loaded MSCs to cancer cells in co-culture, flow cytometry; format: cell-based; details: loaded MSCs co-cultured for 24 hours with cancer cells in ratio 2:1, example of results
Protocol: Cancer cell lines HeLa, SKOV3 and MDA-MB-231 were cultures in RPMI, 10%FBS, 1:100 penicillin/streptomycin, 1:100 L-glutamine. Media was changed every 2 days.
For co-culture with MSCs, cancer cells were detached from culture dish using 0,25% Trypsin-EDTA and resuspended in full RPMI media. UC-MSC cells were prepared as described in Example 1 and then mixed 2:1 (200 000:100 000) with cancer cell line and plated on 24-well plate. Co-culture media was a mixture 1:1 of media for MSC and cancer cells.
The results were analysed by flow cytometry. Before setting up the co-culture in every experiment cancer cells were stained with Cell Trace Violet (Thermo Fisher Scientific) in the 1:100 dilution. In experiments with fluorescent cargo (haemoglon-Alexa488 and ferritin-A488) UC-MSC and cancer cells were differentiated by Cell Trace Violet signal. In experiments with ferritin-doxorubicin all cells in co-culture were additionally stained with Draq7 (BioLegend) in order to track viability. Cells were differentiated by Cell Trace Violet.

[2] = test system: Human umbilical Mesenchymal Stem Cells (MSC); assay: Loading of UC-MSC in suspension with fluorescently labelled iron-binding protein complexes, flow cytometry; format: cell-based; details: MSC at passage five loaded with 0.6 mg/ml
Protocol: Umbilical Cord Mesenchymal Stem cells (UC-MSC) were cultured in DMEM 1000, 1:100 penicillin/streptomycin, 20% FBS, 8 ng/ml bFGF. Media was changed every 2 days. Experiments were carried out on UC-MSCs at passage 5.
Ferritin and haemoglobin complexes were produced as described in WO 2016/207257 (see in particular Examples 5 and 6).
Human UC-MSCs were loaded in suspension with fluorescently labelled haemoglobin-Alexa488, ferritn-Alexa488 or ferritin loaded with anticancer drug doxorubicin (ferritin-doxorubicin) as follows: UC-MSCs were detached from culture dish with 0,25% Trypsin-EDTA then cells were mixed with 0,6 mg/ml of haemoglobin-Alexa488, ferritn-Alexa488 and ferritn-doxorubicin in PBS to final cell density 10^6 per ml. Next cells were incubated for 1 hour at 37 °C, 5% CO2 and washed once in PBS afterwards. Cells were immediately used to set up co-culture with cancer cells.

Haemoglobin-Alexa488: fluorescently labelled haemoglobin-Alexa488, produced as described in WO 2016/207257
cancer cells positive for Haemoglobin-Alexa488 ([1]; Fig. 2C): Approximately 96% | cancer cells positive for Haemoglobin-Alexa488 ([1]; Fig. 3C (Ft- / Ft+ panels)): Approximately 92% | efficacy of loading of MSC [2]: ≥ 97% | mean fluorescence intensity in loaded MSC cells versus control group ([2]; fold higher than control group): 4 times
